Laboratory results as given in patent US20250177566A1, “USE OF CHEMICAL EPIGENETIC MODIFIERS TO MODULATE GENE EXPRESSION” (The University of North Carolina at Chapel Hill, priority 2022, published 2025).
Read-outs that look alike come from different tables or passages of the source.

How the values were obtained:
[1] = system: TRE3G-GFP reporter gene; assay: TRE3G-GFP reporter gene activation in HCT116, dCas9 + MS2-FKBP*x2 (F36V) system, flow cytometry; type: cell-based, human; set-up: fold change, GFP: reference not given here; settings: for fold change, GFP (Treated vs Non-Treated): FIG. 1E, 48 hours; for fold change, GFP: 48 hrs
[2] = system: TRE3G-GFP reporter gene; settings: WT FKBP (MS2-FKBPx2), 48 hrs
Experimental: HCT116 cells were transfected with TRE3G-GFP, dCas9, MS2-FKPB*x2, and TRE3G gRNA or NT gRNA. After 48 hrs of 10 nM SLF*-CEMa treatment, flow cytometry was performed and mean fluorescent value was collected. […] TRE3G-GFP, dCas9, MS2-FKBP*2, TRE3G gRNA or NT gRNA were transfected into HCT116 cells. The media was changed to media with 5 nM CEM207 together with 0 nM, 50 nM, 500 nM or 5000 nM of AP1867, respectively. After 48 hrs chemical exposure, flow cytometry was performed and the mean fluorescent value was measured in each group of cells. […] FIGS. 5D and 5E are dose curves of CEMa molecules activating the GFP reporter gene in HCT116 cells using WT FKBP and dCas9 as DNA binding module. HCT116 cells were transfected with dCas9, MS2-FKBPx2, TRE3G-GFP constructs, along with TRE3G gRNA or NT gRNA. Cells were treated with different concentrations of CEMa molecules for 48 hrs before flow cytometry was conducted. […] Error bars represent the standard deviation.
To better understand the activity of SLF*-CEMa in the WT FKBP-based GFP reporter assay, a similar dose-response assay was conducted in HCT116 cells transfected with dCas9 and MS2-FKBPx2 (FIGS. 1D and 1E).
Flow cytometry. All flow cytometry experiments were performed with Attune Nxt as previously described. […] Significance was determined by Student's t-test.

[3] = system: CXCR4; assay: CXCR4 mRNA activation in HCT116 stably expressing dCas9 and MS2-FKBP*x2, qRT-PCR; type: cell-based, human; settings: FIG. 2C; 5 nM; 48 hrs
Experimental: To further explore the activation potential of the SLF*-CEMa, their ability to target endogenous genes was evaluated (FIGS. 2A and 2B). Lentivirus was used to establish a stable HCT116 cell line expressing dCas9 and MS2-FKBP*x2 constructs, selecting for cells with antibiotic resistance. […] All CEMs were screened for their ability to activate the CXCR4 gene at 5 nM (FIG. 2C). RNA extraction and quantitative RT-PCR (qRT-PCR) were performed after 48 hours of CEM treatment.
To determine the optimal treatment concentration of the SLF*-CEMa molecules in this context, HCT116 cells were treated with 1 nM, 5 nM, 25 nM, and 50 nM of CEM203, CEM207, or CEM87. […] After 48 hours, RNA extraction followed by qRT-PCR was performed to evaluate the change in mRNA expression of CXCR4 (FIG. 2D). […] To directly compare this induced activation to other CRISPR-Cas9-based epigenetic activators, dCas9-VPR and dCas9-p300 constructs were virally infected into HCT116 cells and CXCR4 activation assessed in a similar fashion (FIGS. 2A and 2B).
To determine the time at which SLF*-CEMa most effectively induces gene activation, CXCR4 gene expression changes over time were investigated in dCas9 and MS2-FKBP*x2 stably infected HCT116 cells. Cells were treated with either vehicle, […] (FIG. 3A). RNA extraction and qRT-PCR were performed at 12, 24, 48, 72, and 96 hrs time points (FIG. 3B).
To investigate if endogenous gene activation triggered by the SLF*-CEMa compounds is also reversible, HCT116 cells were treated with CEM203 (50 nM) or CEM207 (25 nM) for 24 hours after transfecting CXCR4 gRNA, and then the CEMs were removed by media exchange at various time points. […] Likewise, it was investigated whether treatment with excess AP1867 could further reverse gene activation, potentially in a more robust fashion than with washout alone if there is any remaining intracellular SLF*-CEMa. To test this, after 24 hours of SLF*-CEMa treatment, a media exchange containing 20 μM AP1867 was performed (FIGS. 3C and 3D).
RNA extraction and qRT-PCR. All RNA extraction experiments were conducted in 12-well plate format. Culturing medium was removed, and cells were washed with 1×PBS, following with 0.05% trypsin to disassociate. After being quenched by medium and centrifuged, cells were washed with 1×PBS, and the RNA extraction was performed by using RNeasy Plus Mini kit (Qiagen, 74134). RT-qPCR was conducted by using RNA-to CT 1-step kit (Thermo Fisher Scientific, 4389986). The primer sets used in quantifying each gene can be found in Table 4.

`CC[C@H](C(=O)N1CCCC[C@H]1C(=O)O[C@H](CCc1ccc(OC)c(OC)c1)c1cccc(OCC(=O)NCCOCCOCCOCCNC(=O)C[C@@H]2N=C(c3ccc(Cl)cc3)c3cc(OC)ccc3-n3c(C)nnc32)c1)c1cc(OC)c(OC)c(OC)c1` [CEM202, (1R)-1-(3-((17-((4S)-6-(4-Chlorophenyl)-8-methoxy-1-methyl-4/I-benzo[f][1,2,4]triazolo[4,3-a][1,4]diazepin-4-yl)-2,16-dioxo-6,9,12-trioxa-3,15-diazaheptadecyl)oxy)phenyl)-3-(3,4-dimethoxyphenyl) propyl (2S)-1-((S)-2-(3,4,5-trimethoxyphenyl)butanoyl) piperidine-2-carboxylate] was tested, and the “fold change, GFP (Treated vs Non-Treated)” value ([1]; TRE3G gRNA, 0.25 nM) was 1.1 fold, the “fold change, GFP (Treated vs Non-Treated)” value ([1]; TRE3G gRNA, 0.5 nM) was 1.3 fold and the “fold change, GFP (Treated vs Non-Treated)” value ([1]; TRE3G gRNA, 0.75 nM) was 1.3 fold. The “fold change, GFP (Treated vs Non-Treated)” value ([1]; TRE3G gRNA, 1 nM) was 1.5 fold, the “fold change, GFP (Treated vs Non-Treated)” value ([1]; TRE3G gRNA, 2.5 nM) was 2.8 fold and the “fold change, GFP (Treated vs Non-Treated)” value ([1]; TRE3G gRNA, 5 nM) was 12.5 fold. For the same molecule, the “fold change, GFP (Treated vs Non-Treated)” value ([1]; TRE3G gRNA, 7.5 nM) was 13.9 fold, the “fold change, GFP (Treated vs Non-Treated)” value ([1]; TRE3G gRNA, 10 nM) was 15.0 fold and the “fold change, GFP (Treated vs Non-Treated)” value ([1]; TRE3G gRNA, 25 nM) was 22.0 fold. For the same molecule, the “fold change, GFP (Treated vs Non-Treated)” value ([1]; TRE3G gRNA, 50 nM) was 28.8 fold, the “fold change, GFP (Treated vs Non-Treated)” value ([1]; TRE3G gRNA, 75 nM) was 27.1 fold and the “fold change, GFP (Treated vs Non-Treated)” value ([1]; TRE3G gRNA, 100 nM) was 25.5 fold. For the same molecule, the “fold change, GFP” value ([1]; FIG. 5A, NT gRNA, 10 nM) was 0.5 fold, the “fold change, GFP” value ([1]; FIG. 5A, TRE3G gRNA, 10 nM) was 8.4 fold and the “fold change, GFP” value ([1]; FIG. 5C, NT gRNA, 0.25 nM) was 1.0 fold. For the same molecule, the “fold change, GFP” value ([1]; FIG. 5C, NT gRNA, 0.5 nM) was 1.0 fold, the “fold change, GFP” value ([1]; FIG. 5C, NT gRNA, 0.75 nM) was 1.1 fold and the “fold change, GFP” value ([1]; FIG. 5C, NT gRNA, 1 nM) was 1.0 fold. The “fold change, GFP” value ([1]; FIG. 5C, NT gRNA, 2.5 nM) was 1.0 fold, the “fold change, GFP” value ([1]; FIG. 5C, NT gRNA, 5 nM) was 1.1 fold and the “fold change, GFP” value ([1]; FIG. 5C, NT gRNA, 7.5 nM) was 1.1 fold. For the same molecule, the “fold change, GFP” value ([1]; FIG. 5C, NT gRNA, 10 nM) was 1.2 fold, the “fold change, GFP” value ([1]; FIG. 5C, NT gRNA, 25 nM) was 1.3 fold and the “fold change, GFP” value ([1]; FIG. 5C, NT gRNA, 50 nM) was 1.4 fold. The “fold change, GFP” value ([1]; FIG. 5C, NT gRNA, 75 nM) was 1.4 fold, the “fold change, GFP” value ([1]; FIG. 5C, NT gRNA, 100 nM) was 1.4 fold and the “fold change, GFP (Treated vs Non-Treated)” value ([2]; FIG. 5D, 10 nM) was 0.9 fold. The “fold change, GFP (Treated vs Non-Treated)” value ([2]; FIG. 5D, 25 nM) was 1.0 fold, the “fold change, GFP (Treated vs Non-Treated)” value ([2]; FIG. 5D, 50 nM) was 1.1 fold and the “fold change, GFP (Treated vs Non-Treated)” value ([2]; FIG. 5D, 100 nM) was 5.3 fold. For the same molecule, the “fold change, GFP (Treated vs Non-Treated)” value ([2]; FIG. 5D, 200 nM) was 11.6 fold, the “fold change, GFP (Treated vs Non-Treated)” value ([2]; FIG. 5D, 400 nM) was 17.5 fold and the “fold change, GFP (Treated vs Non-Treated)” value ([2]; FIG. 5E, 10 nM) was 0.9 fold. For the same molecule, the “fold change, GFP (Treated vs Non-Treated)” value ([2]; FIG. 5E, 25 nM) was 0.9 fold, the “fold change, GFP (Treated vs Non-Treated)” value ([2]; FIG. 5E, 50 nM) was 1.0 fold and the “fold change, GFP (Treated vs Non-Treated)” value ([2]; FIG. 5E, 100 nM) was 1.0 fold. The “fold change, GFP (Treated vs Non-Treated)” value ([2]; FIG. 5E, 200 nM) was 1.0 fold, the “fold change, GFP (Treated vs Non-Treated)” value ([2]; FIG. 5E, 400 nM) was 1.0 fold and the “fold change, CXCR4 mRNA (Treated vs Non-Treated)” value [3] was 3.5 fold.
